Laboratory results as given in PubChem BioAssay AID256 (DTP/NCI, 2004).
Several values for one entry are separate records, joined by “and”; a condition that tells them apart may be missing. Equal values may be shown once. Inconclusive results and toxic doses are left out.

Tested on: CD2F1 mice, L1210 leukemia ip, survival T/C
Assay: NCI In Vivo Anticancer Drug Screen. Data for tumor model L1210 Leukemia (intraperitoneal) in CD2F1 (CDF1) mice
Conditions: endpoint: mean survival time, higher = longer survival
In short: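 Transplantable tumor in mice; compound-treated vs vehicle-treated groups. Read-out = treated/control ratio of the measured endpoint.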

[1] = dose: 100.0 mg/kg/injection, schedule: Q01DX009 (ip), vehicle: saline with Tween-80
[2] = dose: 200.0 mg/kg/injection, schedule: Q01DX009 (ip), vehicle: saline with Tween-80
[3] = dose: 100.0 mg/kg/injection, schedule: Q04DX003 (ip), vehicle: saline with Tween-80
[4] = dose: 200.0 mg/kg/injection, schedule: Q04DX003 (ip), vehicle: saline with Tween-80
[5] = dose: 400.0 mg/kg/injection, schedule: Q01DX009 (ip), vehicle: saline with Tween-80
[6] = dose: 400.0 mg/kg/injection, schedule: Q04DX003 (ip), vehicle: saline with Tween-80
[7] = dose: 4.7 mg/kg/injection, schedule: Q04DX003 (ip), vehicle: saline
[8] = dose: 9.4 mg/kg/injection, schedule: Q04DX003 (ip), vehicle: saline
[9] = dose: 100.0 mg/kg/injection, schedule: Q04DX002 (ip), vehicle: saline with Tween-80
[10] = dose: 200.0 mg/kg/injection, schedule: Q04DX002 (ip), vehicle: saline with Tween-80
[11] = dose: 400.0 mg/kg/injection, schedule: Q04DX002 (ip), vehicle: saline with Tween-80
[12] = dose: 100.0 mg/kg/injection, schedule: Q01DX001 (ip), vehicle: saline
[13] = dose: 200.0 mg/kg/injection, schedule: Q01DX001 (ip), vehicle: saline
[14] = dose: 400.0 mg/kg/injection, schedule: Q01DX001 (ip), vehicle: saline
[15] = dose: 25.0 mg/kg/injection, schedule: Q04DX003 (ip), vehicle: saline with Tween-80
[16] = dose: 50.0 mg/kg/injection, schedule: Q04DX003 (ip), vehicle: saline with Tween-80
[17] = dose: 100.0 mg/kg/injection, schedule: Q01DX001 (ip), vehicle: saline with Tween-80
[18] = dose: 200.0 mg/kg/injection, schedule: Q01DX001 (ip), vehicle: saline with Tween-80
[19] = dose: 400.0 mg/kg/injection, schedule: Q01DX001 (ip), vehicle: saline with Tween-80

In the case of CN(C1=CC(=O)C(N(C)C2CCCCC2)=CC1=O)C1CCCCC1, the T/C (dose: 3.75 mg/kg/injection, schedule: Q01DX009 (ip), vehicle: saline) is reported as 94 % of control, the T/C (dose: 3.75 mg/kg/injection, schedule: Q04DX003 (ip), vehicle: saline) is reported as 103 % of control and the T/C (dose: 7.5 mg/kg/injection, schedule: Q01DX009 (ip), vehicle: saline) is reported as 90 % of control. The T/C (dose: 7.5 mg/kg/injection, schedule: Q04DX003 (ip), vehicle: saline) was 101 % of control, the T/C (dose: 15.0 mg/kg/injection, schedule: Q01DX009 (ip), vehicle: saline) was 89 % of control and the T/C (dose: 15.0 mg/kg/injection, schedule: Q04DX003 (ip), vehicle: saline) was 98 % of control.

CC#CCO was tested, and the T/C [1] was 104 % of control and the T/C [2] was 98 % of control.

C/C(=N\Nc1ccc([N+](=O)[O-])cc1[N+](=O)[O-])c1ccc[nH]1 was tested, and the T/C [1] was 87 % of control, the T/C [3] was 95 % of control and the T/C [2] was 97 % of control. The T/C [4] was 95 % of control, the T/C [5] was 93 % of control and the T/C [6] was 91 % of control.

In the case of C/C(=N/O)c1ccc(F)cc1, the T/C [1] is reported as 100 % of control, the T/C [3] is reported as 94 % of control and 97 % of control and the T/C [2] is reported as 93 % of control and 95 % of control. For the same molecule, the T/C [4] was 94 % of control, the T/C [5] was 94 % of control and 102 % of control and the T/C [6] was 89 % of control and 96 % of control.

For [Cl][Sb]([c]1ccccc1)([c]1ccccc1)([c]1ccccc1)[c]1ccccc1, the T/C [7] was 98 % of control and the T/C [8] was 102 % of control.

For O=C(O)CCC(O)CC(=O)OCc1ccccc1 (stereo unspecified), the T/C (dose: 100.0 mg/kg/injection, schedule: Q04DX002 (ip), vehicle: saline) was 107 % of control, the T/C (dose: 200.0 mg/kg/injection, schedule: Q04DX002 (ip), vehicle: saline) was 107 % of control and the T/C (dose: 400.0 mg/kg/injection, schedule: Q04DX002 (ip), vehicle: saline) was 96 % of control.

With CCOc1ccc(OCC)c(NC(=O)Nc2ccccc2OC)c1 the T/C [9] was 96 % of control, the T/C [10] was 96 % of control and the T/C [11] was 96 % of control.

For CCCCCCCCCCCCOc1c(Cl)cc(Cl)cc1Cl, the T/C [9] was 101 % of control, the T/C [10] was 101 % of control and the T/C [11] was 104 % of control.

With O=C(O)C1C2c3ccccc3C(C1C(=O)O)[n+]1ccccc12 (stereo unspecified) the T/C [12] was 96 % of control, the T/C [13] was 102 % of control and the T/C [14] was 93 % of control.

O=C(Nc1ccc2c3c(ccc(C(=O)Nc4ccccc4)c13)CC2)c1ccccc1 was tested, and the T/C [3] was 100 % of control, the T/C [4] was 100 % of control and the T/C [6] was 92 % of control.

With O=c1[nH]cc(Br)c(=O)[nH]1 the T/C [9] was 101 % of control, the T/C [10] was 97 % of control and the T/C [11] was 106 % of control.

With CCCCCCCCCCNC1=C(Cl)C(=O)c2ccccc2C1=O the T/C [15] was 98 % of control, the T/C [16] was 94 % of control and the T/C [3] was 95 % of control.

With CCN1C(=O)CSC1=S the T/C (dose: 50.0 mg/kg/injection, schedule: Q01DX009 (ip), vehicle: other) was 88 % of control, the T/C (dose: 100.0 mg/kg/injection, schedule: Q01DX001 (ip), vehicle: other) was 94 % of control and the T/C (dose: 100.0 mg/kg/injection, schedule: Q01DX009 (ip), vehicle: other) was 108 % of control. The T/C (dose: 100.0 mg/kg/injection, schedule: Q04DX003 (ip), vehicle: other) was 95 % of control, the T/C (dose: 200.0 mg/kg/injection, schedule: Q01DX001 (ip), vehicle: other) was 93 % of control and the T/C (dose: 200.0 mg/kg/injection, schedule: Q01DX009 (ip), vehicle: other) was 95 % of control. For the same molecule, the T/C (dose: 200.0 mg/kg/injection, schedule: Q04DX003 (ip), vehicle: other) was 93 % of control and the T/C (dose: 400.0 mg/kg/injection, schedule: Q01DX001 (ip), vehicle: other) was 91 % of control.

For CO[C@@]12[C@@H]3N[C@@H]3CN1c1c(O)c(C)c(N=C3N=NC(=S)S3)c(O)c1[C@@H]2COC(N)=O, the T/C (dose: 1.5 mg/kg/injection, schedule: Q01DX001 (ip), vehicle: distilled water + Tween-80) was 98 % of control, the T/C (dose: 3.0 mg/kg/injection, schedule: Q01DX001 (ip), vehicle: distilled water + Tween-80) was 98 % of control and the T/C (dose: 6.0 mg/kg/injection, schedule: Q01DX001 (ip), vehicle: distilled water + Tween-80) was 98 % of control. The T/C (dose: 12.0 mg/kg/injection, schedule: Q01DX001 (ip), vehicle: distilled water + Tween-80) was 102 % of control, the T/C (dose: 24.0 mg/kg/injection, schedule: Q01DX001 (ip), vehicle: distilled water + Tween-80) was 110 % of control and the T/C (dose: 48.0 mg/kg/injection, schedule: Q01DX001 (ip), vehicle: saline with Tween-80) was 100 % of control. The T/C (dose: 96.0 mg/kg/injection, schedule: Q01DX001 (ip), vehicle: saline with Tween-80) was 110 % of control.

In the case of COc1ccc(OC)c(NC(=O)Nc2cc(Cl)c(OC)cc2OC)c1, the T/C [1] is reported as 87 % of control, the T/C (dose: 178.0 mg/kg/injection, schedule: Q01DX009 (ip), vehicle: saline with Tween-80) is reported as 97 % of control and the T/C [2] is reported as 103 % of control. For the same molecule, the T/C (dose: 266.0 mg/kg/injection, schedule: Q01DX009 (ip), vehicle: saline with Tween-80) was 95 % of control and the T/C (dose: 600.0 mg/kg/injection, schedule: Q01DX009 (ip), vehicle: saline with Tween-80) was 95 % of control.

CC(=O)NS(=O)(=O)c1ccc([NH-])cc1.CC(=O)NS(=O)(=O)c1ccc([NH-])cc1.[Cl][Pt+2][Cl] was tested, and the T/C [15] was 102 % of control, the T/C [16] was 97 % of control and the T/C [3] was 96 % of control. The T/C [4] was 94 % of control and the T/C [6] was 104 % of control.

With CCCN(CCC)S(=O)(=O)c1ccc(NC(=O)OC2CCCCCCC2)cc1 the T/C [12] was 92 % of control, the T/C [13] was 98 % of control and the T/C [14] was 101 % of control.

In the case of COc1cc(Cl)ccc1NC(=O)Oc1ccc(Cl)cc1Br, the T/C (dose: 50.0 mg/kg/injection, schedule: Q01DX009 (ip), vehicle: saline with Tween-80) is reported as 96 % of control, the T/C [1] is reported as 96 % of control and the T/C [2] is reported as 96 % of control.

For CS(=O)(=O)CC1C2CCC(CC2)C1CS(C)(=O)=O (stereo unspecified), the T/C [17] was 93 % of control, the T/C [18] was 106 % of control and the T/C [19] was 92 % of control.

In the case of O=C(O)c1cccnc1Cl, the T/C (dose: 75.0 mg/kg/injection, schedule: Q01DX009 (ip), vehicle: Klucel (hydroxypropylcellulose) (HPC)) is reported as 111 % of control and the T/C (dose: 150.0 mg/kg/injection, schedule: Q01DX009 (ip), vehicle: Klucel (hydroxypropylcellulose) (HPC)) is reported as 94 % of control.

CCCCCCCCCCCCOC(=O)c1ccc([N+](=O)[O-])cc1 was tested, and the T/C [17] was 94 % of control, the T/C [18] was 91 % of control and the T/C [19] was 91 % of control.

With O=[N+]([O-])c1ccc(/C=C/c2ccccc2)cc1 the T/C [1] was 104 % of control, the T/C [3] was 102 % of control and the T/C [2] was 100 % of control. The T/C [4] was 104 % of control, the T/C [5] was 98 % of control and the T/C [6] was 96 % of control.

CO/N=C/c1ccc([N+](=O)[O-])s1 was tested, and the T/C (dose: 50.0 mg/kg/injection, schedule: Q01DX009 (ip), vehicle: saline) was 116 % of control.

Cc1cc(C)c([S-])c(C)c1.[Cu+] was tested, and the T/C [7] was 94 % of control and the T/C [8] was 94 % of control.

With CC1=C2CC3C(CC2(C)C(=O)C=C1)OC(=O)C3C (stereo unspecified) the T/C [3] was 93 % of control, the T/C [4] was 89 % of control and the T/C [6] was 98 % of control.

With COc1ccc(OC)c(C2=CCCCCC2)c1 the T/C [3] was 101 % of control, the T/C [4] was 102 % of control and the T/C [6] was 90 % of control.

In the case of O=S1(=O)OCCC1=C(c1ccccc1)c1ccccc1, the T/C (dose: 75.0 mg/kg/injection, schedule: Q04DX003 (ip), vehicle: saline) is reported as 95 % of control, the T/C (dose: 150.0 mg/kg/injection, schedule: Q04DX003 (ip), vehicle: saline) is reported as 97 % of control and the T/C (dose: 300.0 mg/kg/injection, schedule: Q04DX003 (ip), vehicle: saline) is reported as 91 % of control.

For C=CCN(CC=C)P(=O)(N(CC=C)CC=C)N1CC1, the T/C (dose: 11.0 mg/kg/injection, schedule: Q01DX015 (ip), vehicle: saline) was 151 % of control and the T/C (dose: 17.0 mg/kg/injection, schedule: Q01DX015 (ip), vehicle: saline) was 114 % of control.

In the case of CCCCCCCCOc1nccc(N)n1, the T/C (dose: 18.75 mg/kg/injection, schedule: Q01DX001 (ip), vehicle: saline with Tween-80) is reported as 105 % of control, the T/C (dose: 37.5 mg/kg/injection, schedule: Q01DX001 (ip), vehicle: saline with Tween-80) is reported as 100 % of control and the T/C (dose: 75.0 mg/kg/injection, schedule: Q01DX001 (ip), vehicle: saline with Tween-80) is reported as 94 % of control.

For Cc1ccc2c(c1)NP(=S)(c1ccccc1)N2 (stereo unspecified), the T/C [1] was 91 % of control, the T/C [2] was 86 % of control and the T/C [5] was 94 % of control.

CCC(CCc1ccc(OC)c(OC)c1)C(=O)O (stereo unspecified) was tested, and the T/C [9] was 109 % of control, the T/C [10] was 102 % of control and the T/C [11] was 98 % of control.
